What follows are molecules tested on ABCA1 mRNA (assay: ABCA1 mRNA induction in THP-1 cells, QuantiGene branched DNA assay). Conditions: 10 μM test compound, 18-20 hours.
Assay type: cell-based
Outline: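 THP-1 cells, grown to subconfluence, treated with compounds at 10 and 3 μM in DMEM/BSA for 18–20 h. Lysates hybridized with ABCA1-specific probe 16–18 h at 53 °C; QuantiGene branched DNA luminescence gives fold increase over DMSO.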
In the case of `COc1cccc2c1C1Nc3ccc(C(N)=O)cc3C(C)(C)C1CO2` (centres unmarked) [Number 45, 1-methoxy-7,7-dimethyl-7,12,12a,6a-tetrahydrochromano[4,3-b]quinoline-9-carboxamide], the “ABCA1 Induction Fold Increase over DMSO Vehicle” value (“ABCA1 Induction Fold Increase” below) was 4.9 FOLD INCREASE. `COc1cccc2c1OC[C@@H]1[C@H]2Nc2ccc(C(C)C)cc2C1(C)C` [Number 46, (6aS,12aR)-4-methoxy-7,7-dimethyl-9-(methylethyl)-7,12,12a,6a-tetrahydrochromano[4,3-b]quinoline] was tested, and the “ABCA1 Induction Fold Increase” value was 4.2 FOLD INCREASE. `CC(C)Oc1ccc2c(c1)C(C)(C)C1COc3c(F)cccc3[C@H]1N2` (stereo partly drawn) [Number 103, (12aS)-4-fluoro-7,7-dimethyl-9-(methylethoxy)-7,12,12a,6a-tetrahydrochromano[4,3-b]quinoline] was tested, and the “ABCA1 Induction Fold Increase” value was 4.0 FOLD INCREASE. With `COc1cccc2c1OCC1C2Nc2ccc(C(N)=S)cc2C1(C)C` (centres unmarked) [Number 58, amino(4-methoxy-7,7-dimethyl(7,12,12a,6a-tetrahydrochromano[4,3-b]quinolin-9-yl))methane-1-thione] the “ABCA1 Induction Fold Increase” value was 6.2 FOLD INCREASE. `COc1ccc(Br)c2c1OC[C@@H]1[C@H]2Nc2ccc(C(O)(C(F)(F)F)C(F)(F)F)cc2C1(C)C` [Number 64, 2-((6aS,12aR)-1-bromo-4-methoxy-7,7-dimethyl(7,12,12a,6a-tetrahydrochromano[4,3-b]quinolin-9-yl))-1,1,1,3,3,3-hexafluoropropan-2-ol] was tested, and the “ABCA1 Induction Fold Increase” value was 2.5 FOLD INCREASE. For `CNS(=O)(=O)Cc1ccc2c(c1)C(C)(C)C1COc3cccc(OC)c3C1N2` (centres unmarked) [Number 89, {[(1-methoxy-7,7-dimethyl(7,12,12a,6a-tetrahydrochromano[4,3-b]quinolin-9-yl))methyl]sulfonyl}methylamine], the “ABCA1 Induction Fold Increase” value was 6.4 FOLD INCREASE. With `COc1cccc2c1[C@H]1Nc3ccc(OC(F)(F)F)cc3C(C)(C)[C@H]1CO2` [Number 57, ((12aS,6aR)-1-methoxy-7,7-dimethyl(7,12,12a,6a-tetrahydrochromano[4,3-b]quinolin-9-yloxy))trifluoromethane] the “ABCA1 Induction Fold Increase” value was 6.1 FOLD INCREASE. For `COc1cccc2c1[C@H]1Nc3ccc(-c4csnn4)cc3C(C)(C)[C@H]1CO2` [Number 73, (12aS,6aR)-1-methoxy-7,7-dimethyl-9-(1,2,3-thiadiazol-4-yl)-7,12,12a,6a-tetrahydrochromano[4,3-b]quinoline], the “ABCA1 Induction Fold Increase” value was 8.0 FOLD INCREASE. For `COc1cccc2c1[C@H]1Nc3ccc(-c4cnco4)cc3C(C)(C)[C@H]1CO2` [Number 62, (12aS,6aR)-1-methoxy-7,7-dimethyl-9-(1,3-oxazol-5-yl)-7,12,12a,6a-tetrahydrochromano[4,3-b]quinoline], the “ABCA1 Induction Fold Increase” value was 10.6 FOLD INCREASE. For “methylethyl 3-(4-methoxy-7,7-dimethyl-7,12-dihydro-6H-chromeno[4,3-b]quinolin-9-yl)benzoate [Number 61]”, the “ABCA1 Induction Fold Increase” value was 2.0 FOLD INCREASE. In the case of `Cc1cccc2c1OCC1C2Nc2ccc(C(O)(C(F)(F)F)C(F)(F)F)cc2C1(C)C` (centres unmarked) [Number 18, 1,1,1,3,3,3-hexafluoro-2-(4,7,7-trimethyl(7,12,12a,6a-tetrahydrochromano[4,3-b]quinolin-9-yl))propan-2-ol], the “ABCA1 Induction Fold Increase” value was 5.3 FOLD INCREASE. For `COc1cccc2c1OCC1C2Nc2ccc(C(N)=O)cc2C1(C)C` (centres unmarked) [Number 23, 4-methoxy-7,7-dimethyl-7,12,12a,6a-tetrahydrochromano[4,3-b]quinoline-9-carboxamide], the “ABCA1 Induction Fold Increase” value was 6.1 FOLD INCREASE. `CCOc1cccc2c1OCC1C2Nc2ccc(C(O)(C(F)(F)F)C(F)(F)F)cc2C1(C)C` (centres unmarked) [Number 22, 2-(4-ethoxy-7,7-dimethyl(7,12,12a,6a-tetrahydrochromano[4,3-b]quinolin-9-yl))-1,1,1,3,3,3-hexafluoropropan-2-ol] was tested, and the “ABCA1 Induction Fold Increase” value was 4.8 FOLD INCREASE. `COc1cccc2c1OC[C@@H]1[C@@H]2Nc2ccc(C(C)C)cc2C1(C)C` [Number 47, (12aS,6aS)-4-methoxy-7,7-dimethyl-9-(methylethyl)-7,12,12a,6a-tetrahydrochromano[4,3-b]quinoline] was tested, and the “ABCA1 Induction Fold Increase” value was 3.6 FOLD INCREASE. With `COc1cccc2c1[C@H]1Nc3ccc(C(=O)N4CCS(=O)(=O)CC4)cc3C(C)(C)[C@H]1CO2` [Number 121, ((6aR,12aS)-6a,7,12,12a-tetrahydro-1-methoxy-7,7-dimethyl-6H-chromeno[4,3-b]quinolin-9-yl)(1,1-dione-1,4-thiazaperhydroin-yl)methanone] the “ABCA1 Induction Fold Increase” value was 3.2 FOLD INCREASE. For `COc1cccc2c1C1Nc3ccc(C(F)(F)F)cc3C(C)(C)C1CO2` (centres unmarked) [Number 44, 1-methoxy-7,7-dimethyl-9-(trifluoromethyl)-7,12,12a,6a-tetrahydrochromano[4,3-b]quinoline], the “ABCA1 Induction Fold Increase” value was 2.2 FOLD INCREASE. For `COc1cccc2c1OCC1C2Nc2ccc(Br)cc2C1(C)C` (centres unmarked) [Number 75, 9-bromo-4-methoxy-7,7-dimethyl-7,12,12a,6a-tetrahydrochromano[4,3-b]quinoline], the “ABCA1 Induction Fold Increase” value was 7.4 FOLD INCREASE. In the case of `CC1(C)c2cc(C(O)(C(F)(F)F)C(F)(F)F)ccc2NC2c3cc(Cl)cc(Cl)c3OCC21` (centres unmarked) [Number 68, 2-(2,4-dichloro-7,7-dimethyl(7,12,12a,6a-tetrahydrochromano[4,3-b]quinolin-9-yl))-1,1,1,3,3,3-hexafluoropropan-2-ol], the “ABCA1 Induction Fold Increase” value was 2.7 FOLD INCREASE. In the case of `COc1cccc2c1[C@H]1Nc3ccccc3C(C)(C)[C@H]1CO2` [Number 53, (12aS,6aR)-1-methoxy-7,7-dimethyl-7,12,12a,6a-tetrahydrochromano[4,3-b]quinoline], the “ABCA1 Induction Fold Increase” value was 3.5 FOLD INCREASE. For `COc1cccc2c1C1Nc3ccc(C(O)(C(F)(F)F)C(F)(F)F)cc3C(C)(C)C1CO2` (centres unmarked) [Number 24, 1,1,1,3,3,3-hexafluoro-2-(1-methoxy-7,7-dimethyl(7,12,12a,6a-tetrahydrochromano[4,3-b]quinolin-9-yl))propan-2-ol], the “ABCA1 Induction Fold Increase” value was 6.5 FOLD INCREASE. `CC1(C)c2cc(C(O)(C(F)(F)F)C(F)(F)F)ccc2NC2c3cc(F)cc(F)c3OCC21` (centres unmarked) [Number 67, 2-(2,4-difluoro-7,7-dimethyl(7,12,12a,6a-tetrahydrochromano[4,3-b]quinolin-9-yl))-1,1,1,3,3,3-hexafluoropropan-2-ol] was tested, and the “ABCA1 Induction Fold Increase” value was 3.3 FOLD INCREASE. In the case of `CCS(=O)(=O)N1CCN(C(=O)c2coc(-c3ccc4c(c3)C(C)(C)[C@H]3COc5cccc(OC)c5[C@H]3N4)n2)CC1` [Number 147, 2-((6aR,12aS)-1-methoxy-6a,7,12,12a-tetrahydro-7,7-dimethyl-6H-chromeno[4,3-b]quinolin-9-yl)oxazole-(4-(4-ethanesulfonylpiperazin-1-yl)methanone)], the “ABCA1 Induction Fold Increase” value was 7 FOLD INCREASE. `COc1cccc2c1[C@H]1Nc3ccc(-c4cc[nH]n4)cc3C(C)(C)[C@H]1CO2` [Number 111, (12aS,6aR)-1-methoxy-7,7-dimethyl-9-pyrazol-3-yl-7,12,12a,6a-tetrahydrochromano[4,3-b]quinoline] was tested, and the “ABCA1 Induction Fold Increase” value was 4.7 FOLD INCREASE.

Same assay, conditions: Homo sapiens, 10 μM test compound, 18-20 hours, read-out: ABCA1 Induction Fold Increase over DMSO Vehicle
With `COc1cc(-c2cn[nH]c2)cc2c1OC[C@H]1[C@@H]2Nc2ccc(C#N)cc2C1(C)C` [Number 182, (6aR,12aS)-6a,7,12,12a-tetrahydro-4-methoxy-7,7-dimethyl-2-(1H-pyrazol-4-yl)-6H-chromeno[4,3-b]quinoline-9-carbonitrile] the fold induction at 10 µM was 4.6. For `COc1cccc2c1[C@@H]1[C@@H](CO2)C(C)(C)c2ccccc2N1CC(=O)O` [Number 156, 2-((6aS,12aS)-6a,7-dihydro-1-methoxy-7,7-dimethyl-6H-chromeno[4,3-b]quinolin-12(12aH)-yl)acetic acid], the fold induction at 10 µM was 7.6. Work on `COC(=O)c1ccc2c(c1)C(C)(C)[C@@H]1COc3c(OC)cc(Br)cc3[C@H]1N2` [Number 152, (6aS,12aS)-methyl 2-bromo-6a,7,12,12a-tetrahydro-4-methoxy-7,7-dimethyl-6H-chromeno[4,3-b]quinoline-9-carboxylate] yielded a fold induction at 10 µM of 6.1. In the case of `CCS(=O)(=O)N1CCN(C(=O)c2ccc3c(c2)C(C)(C)[C@@H]2COc4c(OC)cccc4[C@H]2N3)CC1` [Number 133, ((6aS,12aS)-4-methoxy-6a,7,12,12a-tetrahydro-7,7-dimethyl-6H-chromeno[4,3-b]quinolin-9-yl)(4-ethanesulfonylpiperazin-1-yl)methanone], the fold induction at 10 µM was 3.8. `CCCN1c2ccccc2C(C)(C)[C@H]2COc3cccc(OC)c3[C@H]21` [Number 172, (6aR,12aS)-12-propyl-6a,7,12,12a-tetrahydro-1-methoxy-7,7-dimethyl-6H-chromeno[4,3-b]quinoline] gave a fold induction at 10 µM of 1.7. `COc1cccc2c1[C@H]1Nc3ccc(S(=O)(=O)CC(=O)O)cc3C(C)(C)[C@H]1CO2` [Number 124, 2-((6aR,12aS)-6a,7,12,12a-tetrahydro-1-methoxy-7,7-dimethyl-6H-chromeno[4,3-b]quinolin-9-ylsulfonyl)acetic acid] gave a fold induction at 10 µM of 3.3. Work on `COc1cccc2c1[C@H]1Nc3ccc(-n4ncc(C(=O)O)c4C)cc3C(C)(C)[C@H]1CO2` [Number 118, 1-((6aR,12aS)-6a,7,12,12a-tetrahydro-1-methoxy-7,7-dimethyl-6H-chromeno[4,3-b]quinolin-9-yl)-5-methyl-1H-pyrazole-4-carboxylic acid] yielded a fold induction at 10 µM of 4. In the case of `COc1cccc2c1OC[C@H]1[C@@H]2Nc2ccc(-c3ccc(F)cc3)cc2C1(C)C` [Number 99, (12aS,6aR)-9-(4-fluorophenyl)-4-methoxy-7,7-dimethyl-7,12,12a,6a-tetrahydrochromano[4,3-b]quinoline], the fold induction at 10 µM was 1.7. Work on `COC(=O)CCN1c2ccccc2C(C)(C)[C@@H]2COc3cccc(OC)c3[C@@H]21` [Number 170, methyl 3-((6aS,12aR)-6a,7-dihydro-1-methoxy-7,7-dimethyl-6H-chromeno[4,3-b]quinolin-12(12aH)-yl)propanoate] yielded a fold induction at 10 µM of 2.3.

From US7432276B2, “ABCA1 elevating compounds” (CV Therapeutics, Inc., priority 2005, dated 2008)
